Values joined by “and” are separate entries in the source; they are usually repeats but may differ in a detail not shown here. Identical values can stand only once.
Columns and labels:
[1] = literature, Wängler et al. Bioconjug Chem 2010; cited from earlier work
[2] = biological target: T1, human serum albumin (Homo sapiens, UniProt P02768); experiment: Binding to human serum albumin by albumin mediated size exclusion chromatography (AMSEC); format: in vitro ADME; settings: size exclusion chromatography with HSA in the mobile phase, 177Lu-labeled
T1 construct: purchased Biowest, Nuaillé, France
Protocol: Binding of ^177Lu-labeled ligands to HSA was assessed by albumin mediated size exclusion chromatography (AMSEC). A gel filtration size exclusion column (Superdex 75 Increase 10/300 GL, GE Healthcare, Uppsala, Sweden) was used with HSA buffer at physiological concentration (700 μM, Biowest, Nuaillé, France) as mobile phase (constant flow rate of 0.8 mL/min at room temperature). For calibration purposes, a commercially available set of proteins (GE Healthcare, Buckinghamshire, UK) was used. Under these chromatographic conditions, the retention time of a radioligand (1.0 MBq, 10-20 GBq/μmol) depends on the extent of HSA/ligand interactions and thus, by means of the calibration with the aforementioned set of proteins, can be translated into an AMW (expressed in kDa) as a parameter allowing to quantify the extent of HSA binding. The detection window ranges between 2.3 kDa ([^18F]Fluoride; no HSA interaction) and 70.2 kDa (experimental molecular weight of HSA; maximum HSA interaction).

[3] = Lipophilicity, n-octanol/PBS (pH 7.4) distribution; format: physicochemical; settings: n-octanol/PBS pH 7.4, 177Lu-labeled, n=6
Protocol: Approximately 1 MBq of the ^177Lu-labeled PSMA ligand was dissolved in 1 mL of a 1:1 mixture (v/v) of phosphate-buffered saline (PBS, pH 7.4) and n-octanol (n=6). After vigorous mixing of the suspension for 3 min, the vial was centrifuged at 15000×g for 3 min and 100 μL aliquots of both layers were measured in a γ-counter. Finally, the ratio of the radioactivity detected in the n-octanol sample and the PBS buffer was calculated and expressed as distribution ratio log D7.4.

[4] = tested on: LNCaP cells; experiment: PSMA-mediated internalization into LNCaP cells; format: cell-based; settings: 1 h, 37° C., percentage of reference ligand ([125I]BA)KuE, n=3
Protocol: (§1) Competitive binding studies were determined on LNCaP cells (1.5×10^5 cells in 1 mL/well) after incubation at 4° C. for 1 h, using (((S)-1-carboxy-5-(4-([^125I]iodo)benzamido)pentyl)carbamoyl)-L-glutamic acid ([^125I]BA)KuE; 0.2 nM/well) as reference radioligand (n=3). Internalization studies of the radiolabeled ligands (1.0 nM/well) were performed on LNCaP cells (1.25×10^5 cells in 1 mL/well) at 37° C. for 1 h and accompanied by ([^125I]BA)KuE (0.2 nM/well), as reference. Data were corrected for non-specific binding and normalized to the specific internalization observed for the reference (n=3). A detailed description of the experimental procedures was previously published (Wurzer A, et al. J Nucl Med. 2020; 61: 735-742).

[5] = biological target: T2, PSMA (Homo sapiens, UniProt Q04609); experiment: Competitive binding studies on LNCaP cells vs ([125I]BA)KuE (affinity, IC50); settings: 1 h, 4° C., natLu complexes, n=3
T2 construct: endogenous in cells; host or cells: LNCaP cells
Protocol: as §1

[6] = tested on: LNCaP tumor-bearing male CB-17 SCID mice; experiment: Ex vivo biodistribution in LNCaP tumor-bearing CB-17 SCID mice; settings: 24 h p.i.
Protocol: All animal experiments were conducted in accordance with general animal welfare regulations in Germany (German animal protection act, as amended on 18 May 2018, Art. 141 G v. 29 Mar. 2017 I 626, approval no. 55.2-1-54-2532-71-13) and the institutional guidelines for the care and use of animals. LNCaP tumor xenografts were established in 6-8 weeks old male CB-17 SCID mice as described previously (Wurzer A, et al. J Nucl Med. 2020; 61: 735-742). Biodistribution Studies. The ^177Ludabeled PSMA inhibitors (2-5 MBq; 0.1 nmol) were injected under isoflurane anesthesia into the tail vein of LNCaP tumor-bearing male CB-17 SCID mice that were sacrificed 24 h post injection (p.i.) (n=4-5). Selected organs were removed, weighed, and measured in a counter. All rhPSMA ligands were evaluated in mice during the same time period (Q1/2020), whereas ^177Ludabeled PSMA-617 and PSMA I&T (Wirtz M, et al. EJNMMI Res. 2018; 8: 84) were assessed previously using the identical cell line, mouse model and experimental procedure.

[7] = n=5, mean of ratios per mouse, listed as [^177Lu]rhPSMA-10.1

T2 sequence (Q04609 whole entry): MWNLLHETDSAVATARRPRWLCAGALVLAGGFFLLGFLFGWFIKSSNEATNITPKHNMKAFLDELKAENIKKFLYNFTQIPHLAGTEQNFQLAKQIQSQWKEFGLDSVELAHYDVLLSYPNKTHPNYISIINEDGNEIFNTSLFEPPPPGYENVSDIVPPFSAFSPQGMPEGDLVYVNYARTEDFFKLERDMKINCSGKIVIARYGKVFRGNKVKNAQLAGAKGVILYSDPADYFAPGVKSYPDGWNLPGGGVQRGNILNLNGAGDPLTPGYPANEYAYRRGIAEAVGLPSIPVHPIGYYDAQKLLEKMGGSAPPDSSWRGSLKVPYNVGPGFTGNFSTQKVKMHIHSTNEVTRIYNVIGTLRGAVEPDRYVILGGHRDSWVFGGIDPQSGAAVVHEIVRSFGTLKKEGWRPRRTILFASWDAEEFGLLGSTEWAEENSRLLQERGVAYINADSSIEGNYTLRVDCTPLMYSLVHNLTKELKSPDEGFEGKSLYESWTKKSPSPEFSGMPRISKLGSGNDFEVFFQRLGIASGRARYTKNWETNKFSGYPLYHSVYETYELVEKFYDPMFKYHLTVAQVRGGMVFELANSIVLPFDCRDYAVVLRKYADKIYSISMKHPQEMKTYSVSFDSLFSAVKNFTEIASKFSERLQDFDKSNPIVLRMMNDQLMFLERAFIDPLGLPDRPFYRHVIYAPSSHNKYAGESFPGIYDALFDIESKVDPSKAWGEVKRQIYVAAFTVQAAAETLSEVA
T1 sequence (P02768 25-609): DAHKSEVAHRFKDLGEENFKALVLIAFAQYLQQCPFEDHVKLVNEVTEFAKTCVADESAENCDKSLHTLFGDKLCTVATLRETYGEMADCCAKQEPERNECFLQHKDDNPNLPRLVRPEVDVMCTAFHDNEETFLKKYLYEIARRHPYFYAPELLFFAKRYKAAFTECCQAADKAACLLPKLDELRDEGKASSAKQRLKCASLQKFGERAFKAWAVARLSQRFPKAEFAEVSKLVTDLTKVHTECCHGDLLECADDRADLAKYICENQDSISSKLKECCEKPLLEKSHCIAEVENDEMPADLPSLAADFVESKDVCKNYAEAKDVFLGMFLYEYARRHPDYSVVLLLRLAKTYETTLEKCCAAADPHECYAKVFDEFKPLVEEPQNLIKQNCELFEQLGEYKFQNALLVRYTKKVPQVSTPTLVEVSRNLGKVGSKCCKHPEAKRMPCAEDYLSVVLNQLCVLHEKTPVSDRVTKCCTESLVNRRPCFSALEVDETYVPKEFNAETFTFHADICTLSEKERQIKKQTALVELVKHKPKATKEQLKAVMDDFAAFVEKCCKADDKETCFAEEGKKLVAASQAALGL

SIFA-Asn(AcNH-β-Glc)-PEG-Tyr^3-octreotate
log P(ow) [1]: 0.96

CC(C)(C)[Si]([19F])(c1ccc(C(=O)NC[C@@H](NC(=O)CN2CCN(CC(=O)O)CCN(CC(=O)O)CCN(CC(=O)O)CC2)C(=O)N[C@H](CCCCNC(=O)CCC(=O)NCCC[C@@H](NC(=O)CC[C@H](NC(=O)N[C@@H](CCC(=O)O)C(=O)O)C(=O)O)C(=O)O)C(=O)O)cc1)C(C)(C)C [[^177Lu, ^19F]rhPSMA-10.1, metal not drawn]
MWapp [kDa] (apparent molecular weight, AMW; HSA binding) [2]: 25.1 kDa | logD7.4 [3]: −3.8 and −3.78 ± 0.06 | Internalization [% IBA-KuE] [4]: 177.4 ± 14.6 % IBA-KuE | IC50 [5]: 2.76 ± 0.51 nM | Kidney uptake as percentage of that of [177Lu, 19F]rhPSMA-7.3 [6]: 20% | Tumor-to-blood ratio, times higher compared to [177Lu, 19F]rhPSMA-7.3 [6]: 2 times | Tumor-to-blood ratio, times higher compared to [177Lu]PSMA-617 [6]: 7 times | Tumor uptake ([6]; LNCaP tumor): 9.8±0.3 % ID/g | Tumor-to-organ ratio adrenals ([6]; n=5, mean of ratios per mouse): 137.57 | Tumor-to-organ ratio blood ([6]; n=5, mean of ratios per mouse): 9117 | Tumor-to-organ ratio bone ([6]; n=5, mean of ratios per mouse): 389.88 | Tumor-to-organ ratio heart ([6]; n=5, mean of ratios per mouse): 641.37 | Tumor-to-organ ratio intestine ([6]; n=5, mean of ratios per mouse): 250.87 | Tumor-to-organ ratio kidney ([6]; n=5, mean of ratios per mouse): 5.5 | Tumor-to-organ ratio liver ([6]; n=5, mean of ratios per mouse): 72.52 | Tumor-to-organ ratio lung ([6]; n=5, mean of ratios per mouse): 404.28 | Tumor-to-organ ratio muscle ([6]; n=5, mean of ratios per mouse): 2431.90 | Tumor-to-organ ratio pancreas ([6]; n=5, mean of ratios per mouse): 797.72 | Tumor-to-organ ratio parotid gl. ([6]; n=5, mean of ratios per mouse): 206.18 | Tumor-to-organ ratio spleen ([6]; n=5, mean of ratios per mouse): 63.66 | Tumor-to-organ ratio stomach ([6]; n=5, mean of ratios per mouse): 351.52 | Tumor-to-organ ratio submand. gl. ([6]; n=5, mean of ratios per mouse): 344.45 | Tumor-to-organ ratio blood [6, 7]: 9117.20 | Tumor-to-organ ratio kidney [6, 7]: 5.52 | Activity accumulation adrenals ([6]; n=5, mean, complete dataset): 0.0983 % ID/g | Activity accumulation blood ([6]; n=5, mean, complete dataset): 0.0019 % ID/g | Activity accumulation bone ([6]; n=5, mean, complete dataset): 0.0298 % ID/g | Activity accumulation heart ([6]; n=5, mean, complete dataset): 0.0192 % ID/g | Activity accumulation intestine ([6]; n=5, mean, complete dataset): 0.0642 % ID/g | Activity accumulation liver ([6]; n=5, mean, complete dataset): 0.1631 % ID/g | Activity accumulation lung ([6]; n=5, mean, complete dataset): 0.0346 % ID/g | Activity accumulation muscle ([6]; n=5, mean, complete dataset): 0.0053 % ID/g | Activity accumulation pancreas ([6]; n=5, mean, complete dataset): 0.0155 % ID/g | Activity accumulation parotid gl. ([6]; n=5, mean, complete dataset): 0.0551 % ID/g | Activity accumulation spleen ([6]; n=5, mean, complete dataset): 0.1828 % ID/g | Activity accumulation stomach ([6]; n=5, mean, complete dataset): 0.0388 % ID/g | Activity accumulation submand. gl. ([6]; n=5, mean, complete dataset): 0.0338 % ID/g | Activity accumulation tumor ([6]; n=5, mean, complete dataset, LNCaP tumor): 11.5563 % ID/g | Activity accumulation kidney ([6]; n=5, mean, complete dataset, listed as [^177Lu]rhPSMA-10.1): 2.4219 % ID/g

CC(C)(C)[Si](F)(c1ccc(C(=O)NC[C@H](NC(=O)CN2CCN(CC(=O)[O-])CCN(CC(=O)[O-])CCN(CC(=O)[O-])CC2)C(=O)N[C@H](CCCCNC(=O)CCC(=O)NCCC[C@@H](NC(=O)CC[C@H](NC(=O)N[C@@H](CCC(=O)O)C(=O)O)C(=O)O)C(=O)O)C(=O)O)cc1)C(C)(C)C.[Lu+3] [[^177Lu, ^19F]rhPSMA-10.2]
MWapp [kDa] (apparent molecular weight, AMW; HSA binding) [2]: 21.8 kDa | logD7.4 [3]: −3.8 and −3.83 ± 0.10 | Internalization [% IBA-KuE] [4]: 205.6 ± 8.3 % IBA-KuE | IC50 [5]: 3.61 ± 0.59 nM | Tumor uptake ([6]; LNCaP tumor): 10.5±3.3 % ID/g

SIFA-Asn(AcNH-β-Glc)-Tyr^3-octreotate
log P(ow) [1]: 1.23

Reference: patent publication US20240066155A1, “DUAL MODE RADIOTRACER AND -THERAPEUTICS” (priority 2021, published 2024)
